The target in the experiment is T1, glucosylceramidase (GCase, GBA) in human fibroblast cell line GM10915 harboring the L444P GBA mutation (Homo sapiens, UniProt P04062, L483P).
T1 construct: Human fibroblast cell line GM10915 harboring the L444P GBA mutation; host or cells: GM10915 human fibroblasts
T1 sequence (P04062 40-536 L483P): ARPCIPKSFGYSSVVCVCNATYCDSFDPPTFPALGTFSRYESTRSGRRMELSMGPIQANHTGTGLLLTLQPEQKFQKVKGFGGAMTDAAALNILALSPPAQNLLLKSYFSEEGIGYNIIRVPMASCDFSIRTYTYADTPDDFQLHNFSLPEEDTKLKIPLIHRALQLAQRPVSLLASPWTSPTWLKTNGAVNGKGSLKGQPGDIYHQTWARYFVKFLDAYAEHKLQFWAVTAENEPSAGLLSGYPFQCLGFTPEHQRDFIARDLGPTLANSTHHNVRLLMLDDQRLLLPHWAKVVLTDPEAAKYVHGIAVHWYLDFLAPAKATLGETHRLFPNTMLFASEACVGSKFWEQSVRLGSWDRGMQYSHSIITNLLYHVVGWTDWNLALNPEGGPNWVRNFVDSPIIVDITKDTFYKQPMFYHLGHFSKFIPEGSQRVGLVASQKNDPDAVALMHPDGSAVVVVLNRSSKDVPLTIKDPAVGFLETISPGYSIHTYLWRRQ
In words: GCase activity assay (4-MUG substrate, normalised to crystal violet staining) in GM10915 fibroblasts. The format is cell-based. The conditions noted are these: five days exposure; for GBA EC1.5: concentration where Percent GCase activity = 150% (1.5-fold induction), 8-point dose range; for Emax / GBA Emax: maximum Percent GCase activity relative to untreated cells in the dose range tested. The procedure:
Human fibroblast cell line GM10915 harboring the L444P GBA mutation was obtained from Coriell Biorepositories. All chemicals (Glacial acetic acid, Glycine, 4-Methylumbelliferyl b-D-glucopyranoside (4-MUG), Sodium acetate trihydrate, Sodium hydroxide, Crystal violet, SDS, Ammonium hydroxide) were obtained from Sigma-Aldrich (Denmark). Compounds tested for GCase activity were dissolved in H2O or DMSO.
The GM10915 cell line was cultured under standard cell culture conditions (37° C. and 5% CO2) in complete DMEM medium supplemented with nonessential amino acids (NEAA), 1% Pen-Strep and 12% FCS. Cells were seeded at a density of 10^4 cells/well in 100 μL complete medium in one black 96-well plate for glucosylceramidase (GCase) activity measurement and in one clear 96-well plate for crystal violet staining to correct for cell density. Crystal violet staining is performed to obtain quantitative information about the relative density of cells adhering to multi-wells plates.
The assay was adapted from Sawkar et al (2002) and briefly described in the following. The day after seeding of cells, the medium was replaced with fresh medium containing the compounds to be tested. Compounds were tested in duplicate and in an 8-point diluted dose range to obtain a dose response. Cells were exposed with compounds for five days. Fresh compound was added every 2-3 days. PBS was included to define the basal level of GCase activity.
Cells were washed three times with 200 μL PBS per well and 50 μL of 2.5 mM 4-MUG buffer (4-MUG dissolved in 0.2 M acetate buffer pH 4.0) was added and the cells were incubated at 37° C., 5% CO2 for 23 hours. The reaction was stopped by adding 150 μL 0.2 M glycine buffer (pH 10.8). Fluorescence was measured with a Varioskan® Flash reader (Thermo Scientific) at an excitation/emission setting of 365/445 nm.
Cells were treated with compounds in a parallel setup identical to the setup to test for GCase activity. At the end of compound treatment, cells were washed once with 200 μL PBS per well and 50 μL 0.1% w/v crystal violet (in H2O) was added. Following 10 min. of incubation, the crystal violet solution was removed, and the cells were washed three times with 200 μL PBS and 100 μL 1% SDS was added to solubilize the stain. The plate was agitated on an orbital shaker for 10-30 min. Absorbance (A) is measured at […] using a Varioskan® Flash reader (Thermo Scientific).
The fluorescence signal (F) derived from the GCase measurement is normalized to the absorbance signal (A) derived from the crystal violet staining. The percent GCase activity resulting from compound treatment is calculated relative to the basal activity obtained from untreated cells.
Maximal effect of compounds (Emax) is determined from the dose response effects as the maximum “Percent GCase activity” achieved in the dose range tested.

For the compound `COC(CO/N=C(\Cl)c1ccc(Cl)nc1)CN1CCCCC1` (stereo not drawn) [ID 503], the “GBA EC1.5” value was found to be 50 µM and the Emax is 142%.

Regarding `OC(CON=C(Br)c1ccc(Cl)nc1)CN1CCCCC1` (stereo not drawn) [ID 504, 6-chloro-N-(2-hydroxy-3-(piperidin-1-yl)propoxy)nicotinimidoyl bromide], the “GBA EC1.5” value came to 20 µM and the Emax is 310%.

Regarding `OC(CO/N=C(\Cl)C1(c2cnccn2)CCNCC1)CN1CCCCC1` (stereo not drawn) [ID 512], the “GBA EC1.5” value came out at 50 µM and the Emax came to 147%.

Consider `OC(CON=C(Cl)C1(c2ccccn2)CCNCC1)CN1CCCCC1` (stereo not drawn) [ID 534, N-(2-hydroxy-3-(piperidin-1-yl)propoxy)-4-(pyridin-2-yl)piperidine-4-carbimidoyl chloride tri-2,2,2-trifluoroacetate], for which the “GBA EC1.5” value is 19 µM and the Emax came out at 226%.

Turning to `OC(CO/N=C(\Cl)C1(Cc2cccnc2)CCNCC1)CN1CCCCC1` (stereo not drawn) [ID 550], for the setting “listed as 550”, the “GBA EC1.5” value came out at 27 µM and the “GBA Emax” value is 159%.

As for `OC(CON=C(Cl)CCN1CCCC1)CN1CCCCC1` (stereo not drawn) [ID 562, N-(2-hydroxy-3-(piperidin-1-yl)propoxy)-3-(pyrrolidin-1-yl)propanimidoyl chloride], the “GBA EC1.5” value worked out at 3 µM and the Emax is 239%.

Consider `OC(CON=C(Cl)CCN1CCCCC1)CN1CCCCC1` (stereo not drawn) [ID 563, N-(2-hydroxy-3-(piperidin-1-yl)propoxy)-3-(piperidin-1-yl)propanimidoyl chloride], for which the “GBA EC1.5” value is 3 µM and the Emax was found to be 211%.

Consider `OC(CO/N=C(\Cl)CCN1CCNCC1)CN1CCCCC1` (stereo not drawn) [ID 593], for which the “GBA EC1.5” value was 50 µM and the Emax was 136%.

For the compound `CN(CC/C(Cl)=N\OCC(O)CN1CCCCC1)C(=O)OC(C)(C)C` (stereo not drawn) [ID 599, tert-butyl (3-chloro-3-((2-hydroxy-3-(piperidin-1-yl)propoxy)imino)propyl)(methyl)carbamate], the “GBA EC1.5” value was 48 µM and the Emax was found to be 136%.

For `CCCCCO[C@H]1CC[C@H](NC(=O)c2cnn3c(C)cc(C)nc23)CC1` [LTI-291, reference compound], the “GBA EC1.5” value stood at 112 µM and the Emax was 232%.

As to “N-(2-hydroxy-3-(piperidin-1-yl)propoxy)-4-((6-methoxy-2-methylpyridin-3-yl)methyl)piperidine-4-carbimidoyl chloride tri-2,2,2-trifluoroacetate [ID 524]”, the “GBA EC1.5” value amounted to 1 µM and the “GBA Emax” value amounted to 149%.

Take “N-(2-hydroxy-3-(piperidin-1-yl)propoxy)-4-((6-methylpyridin-3-yl)methyl)piperidine-4-carbimidoyl chloride tri-2,2,2-trifluoroacetate [ID 493]”: the “GBA EC1.5” value was 18 µM and the “GBA Emax” value stood at 279%.

Usually Emax stands for the size of the effect at its maximum, as opposed to the concentration needed.

(Values after patent publication US20240383853A1, “OXIMES AND THEIR USE IN TREATMENT OF GBA-RELATED DISEASES” (ZEVRA DENMARK A/S, priority 2021, published 2024).)
